Laboratory results published in patent publication US8324245B2, “Quinoline derivative and quinazoline derivative inhibiting self-phosphorylation of hepatocytus proliferator receptor, and medicinal composition containing the same” (Kyowa Hakko Kirin Co., Ltd., priority 2001, dated 2012).

biological target: T1, met (HGF receptor) in human gastric cancer cells MKN45 (Homo sapiens, UniProt P08581); experiment: Inhibitory activity against met-autophosphorylation using ELISA method (2), MKN45 cells, HGF-independent; type: cell-based
T1 construct: endogenous in cells; host or cells: MKN45 human gastric cancer cells
How it was run: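 Met autophosphorylation was read by sandwich ELISA: phosphotyrosine capture (PY20), anti-HGF receptor detection, peroxidase read-out at 450 nm. Lysates came from MKN45 gastric cancer cells kept in 0.1% FCS RPMI and treated 1 h at 37 °C with test compound, with no added HGF.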

T1 sequence (P08581 25-1390): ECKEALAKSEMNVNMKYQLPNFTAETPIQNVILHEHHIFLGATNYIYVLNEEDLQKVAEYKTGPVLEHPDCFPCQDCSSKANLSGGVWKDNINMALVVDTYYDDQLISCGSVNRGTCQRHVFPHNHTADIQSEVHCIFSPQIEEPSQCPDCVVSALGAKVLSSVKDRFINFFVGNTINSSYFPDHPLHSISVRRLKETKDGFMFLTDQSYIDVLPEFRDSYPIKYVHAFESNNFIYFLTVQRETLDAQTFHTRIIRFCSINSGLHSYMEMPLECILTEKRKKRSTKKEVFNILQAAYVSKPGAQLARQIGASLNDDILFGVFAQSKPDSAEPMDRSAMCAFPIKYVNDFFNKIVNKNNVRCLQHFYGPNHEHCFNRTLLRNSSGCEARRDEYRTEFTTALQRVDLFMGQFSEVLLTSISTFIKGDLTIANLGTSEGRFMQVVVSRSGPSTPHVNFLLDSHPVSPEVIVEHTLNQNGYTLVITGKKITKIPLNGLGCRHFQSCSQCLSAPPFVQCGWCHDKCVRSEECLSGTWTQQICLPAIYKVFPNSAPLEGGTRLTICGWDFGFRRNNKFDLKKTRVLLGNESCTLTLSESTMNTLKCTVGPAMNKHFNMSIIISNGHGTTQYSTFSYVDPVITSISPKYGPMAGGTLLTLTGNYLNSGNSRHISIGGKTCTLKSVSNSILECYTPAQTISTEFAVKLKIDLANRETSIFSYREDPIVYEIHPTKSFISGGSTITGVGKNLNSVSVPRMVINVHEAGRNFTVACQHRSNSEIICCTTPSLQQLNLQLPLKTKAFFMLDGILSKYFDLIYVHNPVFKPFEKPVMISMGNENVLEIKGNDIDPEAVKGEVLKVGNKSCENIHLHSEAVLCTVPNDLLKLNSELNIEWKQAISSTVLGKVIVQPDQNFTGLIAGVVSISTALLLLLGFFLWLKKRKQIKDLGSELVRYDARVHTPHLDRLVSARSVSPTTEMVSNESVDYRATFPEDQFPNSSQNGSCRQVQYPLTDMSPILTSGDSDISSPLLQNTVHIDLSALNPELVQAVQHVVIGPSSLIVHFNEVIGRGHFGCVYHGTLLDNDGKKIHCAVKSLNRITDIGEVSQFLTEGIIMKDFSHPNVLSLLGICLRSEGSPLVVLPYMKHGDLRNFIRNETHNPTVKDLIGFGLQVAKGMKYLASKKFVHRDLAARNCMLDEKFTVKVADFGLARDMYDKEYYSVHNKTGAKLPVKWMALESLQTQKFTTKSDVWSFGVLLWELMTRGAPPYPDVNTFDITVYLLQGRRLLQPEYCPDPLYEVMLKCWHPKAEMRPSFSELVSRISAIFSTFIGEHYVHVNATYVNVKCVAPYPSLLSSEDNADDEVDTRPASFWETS

IC50 [nM] | SMILES
3320 | COc1cc2nccc(Oc3ccc(NC(=O)NC(=O)Nc4ccc(CC#N)cc4)cc3)c2cc1OC [Example 241, N-[4-(cyanomethyl)phenyl]-({[4-(6,7-dimethoxyquinolin-4-yloxy)anilino]carbonyl}amino)-methanamide]
614 | COc1cc2nccc(Oc3ccc(NC(=O)NC(=O)Nc4ccccc4-n4cccc4)cc3)c2cc1OC [Example 259, N-[2-(1H-1-pyrrolyl)phenyl]-({[4-(6,7-dimethoxyquinolin-4-yloxy)anilino]carbonyl}amino)-methanamide]
145 | COc1cc2nccc(Oc3ccc(NC(=S)NC(=O)Cc4ccccc4C)cc3)c2cc1OC [Example 79, 1-[4-(6,7-dimethoxyquinolin-4-yloxy)phenyl]-3-(2-o-tolylacetyl)thiourea]
242 | COc1cc2c(Oc3ccc(NC(=O)NC(=O)Cc4ccc(F)cc4)c(F)c3)ccnc2cc1OCc1ccccc1 [Example 40, N-(4-{[7-(Benzyloxy)-6-methoxy-4-quinolyl]oxy}-2-fluorophenyl)-N′-[2-(4-fluorophenyl)acetyl]urea]
1010 | COc1cc2nccc(Oc3ccc(NC(=O)NC(=O)CSc4ccccc4)cc3)c2cc1OC [Example 129, 1-[4-(6,7-dimethoxyquinolin-4-yloxy)phenyl]-3-(2-phenylsulfanylacetyl)urea]
273 | COc1cc2nccc(Oc3ccc(NC(=O)NC(=O)Nc4ccc(F)cc4F)cc3)c2cc1OC [Example 229, N-(2,4-difluorophenyl)-({[4-(6,7-dimethoxy-quinolin-4-yloxy)anilino]carbonyl}amino)methanamide]
75 | COc1cc2nccc(Oc3ccc(NC(=O)NC(=O)Cc4ccccc4)cc3)c2cc1OC [Example 4, 1-[4-(6,7-dimethoxyquinolin-4-yloxy)phenyl]-3-phenyl-acetylurea]
109 | COc1cc2nccc(Oc3ccc(NC(=O)NC(=O)Nc4ccccc4CCO)cc3)c2cc1OC [Example 267, N-[2-(2-hydroxyethyl)phenyl]-({[4-(6,7-dimethoxyquinolin-4-yloxy)anilino]carbonyl}amino)-methanamide]
171 | COc1cc2nccc(Oc3ccc(NC(=O)NC(=O)Cc4cccs4)cc3Cl)c2cc1OC [Example 32, 1-[3-chloro-4-(6,7-dimethoxyquinolin-4-yloxy)-phenyl]-3-(2-thiophen-2-ylacetyl)urea]
526 | COc1cc2nccc(Oc3ccc(NC(=O)NC(=O)Nc4ccc(Cl)cc4)cc3)c2cc1OC [Example 249, N-(4-chlorophenyl)-({[4-(6,7-dimethoxy-quinolin-4-yloxy)anilino]carbonyl}amino)methanamide]
3590 | COc1cc2nccc(Oc3ccc(NC(=S)NC(=O)C4CCCC4)c(F)c3)c2cc1OC [Example 143, 1-cyclopentanecarbonyl-3-[4-(6,7-dimethoxy-quinolin-4-yloxy)-2-fluorophenyl]thiourea]
66.3 | COc1cc2nccc(Oc3ccc(NC(=S)NC(=O)Cc4cccc(C)c4)cc3Cl)c2cc1OC [Example 78, 1-[3-chloro-4-(6,7-dimethoxyquinolin-4-yloxy)-phenyl]-3-(2-m-tolylacetyl)thiourea]
201 | COc1cc2nccc(Oc3ccc(NC(=O)CC(=O)Nc4ccc(F)cc4F)c(Cl)c3)c2cc1OC [Example 222, N-[2-chloro-4-(6,7-dimethoxyquinolin-4-yloxy)phenyl]-N′-(2,4-difluorophenyl)malonamide]
28.3 | COc1cc2c(Oc3ccc(NC(=S)NC(=O)Cc4ccccc4F)cc3F)ccnc2cc1OCC(O)CN1CCCCC1 (stereo not drawn) [Example 318, 1-(3-Fluoro-4-[7-(2-hydroxy-3-piperidin-1-yl-propoxy)-6-methoxy-quinolin-4-yloxy]-phenyl)-3-[2-(2-fluoro-phenyl)-acetyl]-thiourea]
198 | COc1cc2nccc(Oc3ccc(NC(=S)NC(=O)Cc4ccccc4Cl)cc3F)c2cc1OC [Example 87, 1-[2-(2-chlorophenyl)acetyl]-3-[4-(6,7-dimethoxyquinolin-4-yloxy)-3-fluorophenyl]thiourea]
